Test results from paper PMC4839570, “Novel Anthra[1,2-c][1,2,5]Thiadiazole-6,11-Diones as Promising Anticancer Lead Compounds: Biological Evaluation, Characterization & Molecular Targets Determination” (PLoS ONE, 2016).
Where two headings read alike, the source gives them in different places.

What was measured:
K-562 = test: NCI-60 cytotoxicity screen; assay type: cell-based; settings: Homo sapiens, K562, Fig 7, read-out: mean log10 of the GI50 values (converted)
MOLT-4 = test: NCI-60 cytotoxicity screen; assay type: cell-based
HOP-92 = test: NCI-60 cytotoxicity screen; assay type: cell-based
NCI-H322M = test: NCI-60 cytotoxicity screen; assay type: cell-based
NCI-H522 = test: NCI-60 cytotoxicity screen; assay type: cell-based
COLO 205 = test: NCI-60 cytotoxicity screen; assay type: cell-based
HCC-2998 = test: NCI-60 cytotoxicity screen; assay type: cell-based
SNB-75 = test: NCI-60 cytotoxicity screen; assay type: cell-based
SK-MEL-5 = test: NCI-60 cytotoxicity screen; assay type: cell-based
UACC-62 = test: NCI-60 cytotoxicity screen; assay type: cell-based
IGROV1 = test: NCI-60 cytotoxicity screen; assay type: cell-based
NCI/ADR-RES = test: NCI-60 cytotoxicity screen; assay type: cell-based
ACHN = test: NCI-60 cytotoxicity screen; assay type: cell-based
CAKI-1 = test: NCI-60 cytotoxicity screen; assay type: cell-based
UO-31 = test: NCI-60 cytotoxicity screen; assay type: cell-based
HS 578T = test: NCI-60 cytotoxicity screen; assay type: cell-based; settings: Homo sapiens
HBC-4 = test: JFCR-39 cytotoxicity screen; assay type: cell-based
SF-539 = test: JFCR-39 cytotoxicity screen; assay type: cell-based
SNB-78 = test: JFCR-39 cytotoxicity screen; assay type: cell-based
HT-29 = test: JFCR-39 cytotoxicity screen; assay type: cell-based
A549 = test: JFCR-39 cytotoxicity screen; assay type: cell-based
MKN1 = test: JFCR-39 cytotoxicity screen; assay type: cell-based
[1] = tested on: JFCR 39 human cancer cell lines; test: JFCR-39 screen, means, ranges and selectivity over panels; assay type: cell-based; settings: for GI50: Homo sapiens
Description: Both NSC745885 and NSC757963 satisfied the pre-determined threshold inhibition criteria of the NCI-60 One-Dose Screening, so they were tested against the panels of 60 cancer cell lines of NCI (NCI-60) and 39 cancer cell lines of JFCR (JFCR-39), each cell line was tested at five small doses of our compounds. Results are expressed as the 50% growth inhibition concentration (GI50), the 50% lethal concentration (LC50) and the total growth inhibition (TGI), compared to the values of untreated control cells.
To characterize the selectivity of NSC745885 and NSC757963 further among the different types of cancer, we determined their selectivity ratios towards each cell line subpanel used in the cytotoxicity experiments. […] The promising activity of this compound is evident from the small mean GI50 values. […] The strongest activity was towards the leukemia subpanel and the least one was towards the colon cancer subpanel. […] The strongest activity was towards the melanoma subpanel and the least one was towards the colon cancer subpanel.
All cell lines were published before.

OVCAR-3 = settings: JFCR
[2] = Homo sapiens, Fig 7, read-out: mean log10 of the GI50 values (converted)
[3] = Homo sapiens, five-dose, read-out: GI50
[4] = Homo sapiens, five-dose, read-out: LC50 (the source's name)
[5] = Homo sapiens, read-out: LC50 (the source's name)

Compound: O=C1c2ccccc2C(=O)c2c1cc(Cl)c1nsnc21 [NSC757963]
- GI50 (K-562): 0.759 µM
- GI50 (MOLT-4; [2]): 0.437 µM
- GI50 (MOLT-4; [3]): 0.46 µM
- CC50 (MOLT-4; [4]): > 100 µM
- TGI (MOLT-4; five-dose): 26.7 µM
- GI50 (HOP-92; [2]): 1.45 µM
- GI50 (HOP-92; [3]): 1.43 µM
- CC50 (HOP-92; [4]): 7.84 µM
- TGI (HOP-92; five-dose): 3.34 µM
- GI50 (NCI-H322M; [2]): 30.9 µM
- GI50 (NCI-H322M; [3]): 18.6 µM
- CC50 (NCI-H322M; [4]): 71 µM
- TGI (NCI-H322M; five-dose): 36.3 µM
- GI50 (NCI-H522; [2]): 1.66 µM
- GI50 (NCI-H522; [3]): 1.6 µM
- CC50 (NCI-H522; [4]): 8.18 µM
- TGI (NCI-H522; five-dose): 3.62 µM
- GI50 (COLO 205; Homo sapiens, COLO205, Fig 7, read-out: mean log10 of the GI50 values (converted)): 14.1 µM
- GI50 (COLO 205; [3]): 16.9 µM
- CC50 (COLO 205; [4]): 57.9 µM
- TGI (COLO 205; five-dose): 31.2 µM
- GI50 (HCC-2998; [2]): 17 µM
- LC50 (concentration causing 50% net cell kill) (HCC-2998; Homo sapiens, five-dose): 56.6 µM
- GI50 (HCC-2998; [3]): 14.1 µM
- TGI (HCC-2998; five-dose): 28.2 µM
- GI50 (SNB-75; [2]): 1.91 µM
- GI50 (SNB-75; [3]): 2.17 µM
- CC50 (SNB-75; [4]): 69.1 µM
- TGI (SNB-75; five-dose): 6.89 µM
- GI50 (SK-MEL-5; [2]): 6.92 µM
- GI50 (SK-MEL-5; [3]): 8.48 µM
- CC50 (SK-MEL-5; [4]): 46.2 µM
- TGI (SK-MEL-5; five-dose): 21.0 µM
- GI50 (UACC-62; [2]): 3.47 µM
- GI50 (UACC-62; [3]): 4.43 µM
- CC50 (UACC-62; [4]): 41.8 µM
- TGI (UACC-62; five-dose): 17.0 µM
- GI50 (IGROV1; Homo sapiens, IGROV-1, Fig 7, read-out: mean log10 of the GI50 values (converted)): 2.51 µM
- GI50 (IGROV1; Homo sapiens, IGROV-1, five-dose, read-out: GI50): 3.3 µM
- CC50 (IGROV1; Homo sapiens, IGROV-1, five-dose, read-out: LC50 (the source's name)): 45.7 µM
- TGI (IGROV1; five-dose): 15.6 µM
- GI50 (NCI/ADR-RES; [2]): 3.09 µM
- GI50 (NCI/ADR-RES; [3]): 3.12 µM
- CC50 (NCI/ADR-RES; [4]): > 100 µM
- TGI (NCI/ADR-RES; five-dose): 18.8 µM
- GI50 (ACHN; [2]): 2 µM
- GI50 (ACHN; [3]): 2 µM
- CC50 (ACHN; [4]): 7.74 µM
- TGI (ACHN; five-dose): 3.93 µM
- GI50 (CAKI-1; [2]): 7.08 µM
- GI50 (CAKI-1; [3]): 12.3 µM
- CC50 (CAKI-1; [4]): 58.8 µM
- TGI (CAKI-1; five-dose): 26.8 µM
- GI50 (UO-31; [2]): 6.31 µM
- GI50 (UO-31; [3]): 14 µM
- CC50 (UO-31; [4]): 52.4 µM
- TGI (UO-31; five-dose): 27.1 µM
- GI50 (HS 578T; Hs-578T, HS578T, Fig 7, read-out: mean log10 of the GI50 values (converted)): 2.51 µM
- GI50 (HS 578T; HS 578T, five-dose, read-out: GI50): 2.38 µM
- CC50 (HS 578T; HS 578T, five-dose, read-out: LC50 (the source's name)): > 100 µM
- TGI (HBC-4): 3.1 µM
- GI50 (HBC-4; Homo sapiens, HBC4): 1.7 µM
- CC50 (HBC-4; Homo sapiens, HBC4, read-out: LC50 (the source's name)): 5.6 µM
- TGI (SF-539): 3.4 µM
- GI50 (SF-539; Homo sapiens): 1.9 µM
- CC50 (SF-539; [5]): 6.4 µM
- TGI (SNB-78): 4.1 µM
- GI50 (SNB-78; Homo sapiens): 2.2 µM
- CC50 (SNB-78; [5]): 7.9 µM
- TGI (HT-29): 45.0 µM
- GI50 (HT-29; Homo sapiens): 21 µM
- CC50 (HT-29; [5]): 98 µM
- TGI (A549): 43.0 µM
- GI50 (A549; Homo sapiens): 20 µM
- CC50 (A549; [5]): 95 µM
- TGI (MKN1): 3.4 µM
- GI50 (MKN1; Homo sapiens, MKN-1): 1.8 µM
- CC50 (MKN1; Homo sapiens, MKN-1, read-out: LC50 (the source's name)): 6.6 µM
- selectivity ratios of the JFCR subpanels (for NSC745885 except melanoma) [1]: less than 3
- GI50 ([1]; JFCR Breast Cancer, read-out: Mean GI50 of subpanel): 1.72 µM
- GI50 ([1]; JFCR CNS Cancer, read-out: Mean GI50 of subpanel): 2 µM
- GI50 ([1]; JFCR Colon Cancer, read-out: Mean GI50 of subpanel): 5.94 µM
- GI50 ([1]; JFCR Lung Cancer, read-out: Mean GI50 of subpanel): 5.86 µM
- GI50 ([1]; JFCR Melanoma, read-out: Mean GI50 of subpanel): 1.9 µM
- GI50 ([1]; JFCR Ovarian Cancer, read-out: Mean GI50 of subpanel): 2.08 µM
- GI50 ([1]; JFCR Prostate Cancer, read-out: Mean GI50 of subpanel): 2.05 µM
- GI50 ([1]; JFCR Renal Cancer, read-out: Mean GI50 of subpanel): 1.75 µM
- GI50 ([1]; JFCR Stomach Cancer, read-out: Mean GI50 of subpanel): 1.97 µM
- GI50 ([1]; all JFCR subpanels, read-out: mean GI50 values of the JFCR subpanels, range): 1.72 to 5.9 µM
- GI50 ([1]; equivalent to MG-MID, read-out: Mean GI50 of all JFCR-39 cell line panels): 3.15 µM
- GI50 ([1]; five-dose, read-out: JFCR-39 GI50 values, range over cell lines): 1 to 21 µM
- Selectivity ratio ([1]; JFCR Breast Cancer): 1.83
- Selectivity ratio ([1]; JFCR CNS Cancer): 1.58
- Selectivity ratio ([1]; JFCR Colon Cancer): 0.53
- Selectivity ratio ([1]; JFCR Lung Cancer): 0.54
- Selectivity ratio ([1]; JFCR Melanoma): 1.66
- Selectivity ratio ([1]; JFCR Ovarian Cancer): 1.52
- Selectivity ratio ([1]; JFCR Prostate Cancer): 1.54
- Selectivity ratio ([1]; JFCR Renal Cancer): 1.8
- Selectivity ratio ([1]; JFCR Stomach Cancer): 1.6
- TGI (OVCAR-3): 4.2 µM
